One data set addresses T1, AKT3 (Homo sapiens, UniProt Q9Y243).
T1 construct: purchased Invitrogen PV3185
The experiment in a line: In vitro enzyme activity test (HTRF kinEASE TK), AKT3. The format is biochemical. To be noted: enzyme 0.3 ng/well, reaction 50 min. The protocol:
(§1) Experimental Procedure 2.1 Preparation of Reagents
(§2) 1 mL 1× Kinase Reaction Buffer of Kinase AKT1, AKT2 and AKT3 contain 200 μL 5× Kinase Reaction Buffer, 5 μL 1 M MgCl2, 1 μL 1 M DTT and 794 μL ultrapure water.
(§3) In addition to the control wells, 4 μL of the diluted compound working solutions were added to all reaction wells.
(§4) b) 2 μL of the previously prepared TK-biotin substrate solution was added to all reaction wells.
(§5) c) 2 μL of the previously prepared enzyme solution was added to all reaction wells, except the negative wells. The volume of the negative well was filled with 2 μL of enzyme corresponding to 1× kinase reaction buffer. The plate was sealed with sealing film. After mixing, the plate was incubated at room temperature for 10 min to allow the compound and enzyme to fully combined.
(§6) d) 2 μL of ATP solution was added to all reaction wells to start the kinase reaction.
(§7) e) The test solution was prepared 5 min before the end of the kinase reaction.
(§8) f) After the kinase reaction was completed, 5 μL of diluted streptavidin-XL665 were added to all reaction wells, and immediately the diluted europium-labeled tyrosine kinase substrate antibody detection solution was added after mixing.
(§9) g) The plate was sealed and mixed well. […] The inhibition rate of each well was calculated through the fully active wells and the background signal wells, taking the average value in case of multiple wells. Meanwhile, the professional drawing analysis software PRISM 6.0 was used to fit the half maximal inhibitory concentration (IC50) of each test compound.
(In general: In TR-FRET formats the signal depends on donor and acceptor labels being close together.)

For another data set, the target named is AKT1 (Homo sapiens, UniProt P31749). The experiment in a line: In vitro enzyme activity test (HTRF kinEASE TK), AKT1. In kind it is biochemical. To be noted: ATP 2 μM, enzyme 0.6 ng/well, reaction 50 min. The protocol:
as §1, §2, §3, §4, §5, §6, §7, §8, §9

Data set [1] in a line: Pharmacokinetic evaluation in mice after intragastric administration. The format is in vivo, mouse. To be noted: po. As to the method:
400 μl of stock solution with a concentration of 10 mg/mL was accurately pipetted into a glass bottle, and 3.6 mL of mixed menstruum was added. The ratio of the menstruum in the final formulation is DMSO:mixed menstruum (v/v)=10:90. After vortexing (or sonication) and evenly distributed, 4 mL of a dosing solution with a concentration of 1 mg mL^-1 for each compound was obtained. Formulation of Isomer 2 of the compound of Example 15: Menstruum: DMSO: PEG400: ultrapure water=5:20:75 (v/v/v) 5.37 mg of test sample Isomer 2 of the compound of Example 15 was weighed into a glass bottle; 0.269 mL of DMSO was added, vortexed to completely dissolve the solid material; 1.074 mL of PEG400 was added, vortexed, and mixed; 4.028 mL of ultrapure water was added, vortexed and mixed to obtain a colorless solution with a concentration of 1 mg·mL^-1. Experimental animal: mouse, strain ICR, source: Weitong Lihua Laboratory Animal Technology Co., Ltd., age: 6-10 weeks, male. [table] The experimental animals were fed in the animal room of Suzhou Shengsu New Pharmaceutical Development Co., Ltd. The animal room was well ventilated and equipped with air conditioning. The temperature was maintained at 20-25° C. and the humidity was maintained at 40%-70%. Bright and dark lighting for 12 hours each, and the experimental animals ate and drank freely. After normal feeding for at least 5 days, mice with good physical signs were selected for this experiment after veterinary inspection. Each mouse was marked with a tag on its tail. On the day before the experiment, the mice were fasted overnight and were allowed to drink freely, and were fed 4 hours after the administration. […] After the administration, about 100 μL of blood was collected from the orbit of the mouse at each time point and placed in an EDTA-K2 anticoagulation tube. […] An LC-MS/MS analytical method for determining the concentration of compounds in mouse plasma was established and used to determine the concentration of compounds in the biological samples obtained in this experiment. The non-compartmental model in Pharsight Phoenix 7.0 was used to calculate the pharmacokinetic parameters.

The target of another data set is T2, AKT2 (Homo sapiens, UniProt P31751).
T2 construct: purchased Carna 01-102
The experiment in a line: In vitro enzyme activity test (HTRF kinEASE TK), AKT2. In kind it is biochemical. The following applies: ATP 20 μM, enzyme 0.1 ng/well, reaction 50 min. As to the method: as §1, §2, §3, §4, §5, §6, §7, §8, §9

[2] abbreviates: male ICR mouse, 10 mg·kg−1 intragastrically, single dose, fasted, plasma.
The mark [3] stands for this setting: male ICR mouse, 10 mg·kg−1 intragastrically, single dose, fasted, plasma, read-out: AUC.
The mark [4] stands for this setting: male ICR mouse, 10 mg·kg−1 intragastrically, single dose, fasted, plasma, read-out: Cmax.
Setting [5] is: male ICR mouse, 10 mg·kg−1 intragastrically, single dose, fasted, plasma, read-out: Tmax.
Where [6] appears, read: male, ICR, mouse, in vivo, 10 mg/kg.

Counter-ions that a name gives are not always drawn. Like-named read-outs stand apart in the source and are kept apart here.

In general, IC50 refers to the concentration that gives 50% inhibition. By half-life is commonly meant the time needed for the level to fall by half in the phase considered. By AUC is commonly meant the area under the concentration-time curve, a measure of exposure. One may read the Cmax as the highest concentration seen after dosing. Usually Tmax stands for the time at which the peak concentration occurs.

T2 sequence (P31751 whole entry): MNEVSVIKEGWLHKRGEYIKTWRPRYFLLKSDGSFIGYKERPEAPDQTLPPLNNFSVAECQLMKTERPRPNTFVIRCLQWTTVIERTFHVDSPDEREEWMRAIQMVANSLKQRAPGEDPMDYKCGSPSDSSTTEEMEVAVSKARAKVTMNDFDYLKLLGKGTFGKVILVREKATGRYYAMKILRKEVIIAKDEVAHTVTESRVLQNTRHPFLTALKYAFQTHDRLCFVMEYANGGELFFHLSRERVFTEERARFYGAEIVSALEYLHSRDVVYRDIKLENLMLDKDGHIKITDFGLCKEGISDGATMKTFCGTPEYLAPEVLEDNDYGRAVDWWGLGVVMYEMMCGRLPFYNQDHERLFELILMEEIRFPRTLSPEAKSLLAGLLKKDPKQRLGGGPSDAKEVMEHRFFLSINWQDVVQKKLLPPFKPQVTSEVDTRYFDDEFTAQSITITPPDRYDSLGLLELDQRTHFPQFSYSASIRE
T1 sequence (Q9Y243 whole entry): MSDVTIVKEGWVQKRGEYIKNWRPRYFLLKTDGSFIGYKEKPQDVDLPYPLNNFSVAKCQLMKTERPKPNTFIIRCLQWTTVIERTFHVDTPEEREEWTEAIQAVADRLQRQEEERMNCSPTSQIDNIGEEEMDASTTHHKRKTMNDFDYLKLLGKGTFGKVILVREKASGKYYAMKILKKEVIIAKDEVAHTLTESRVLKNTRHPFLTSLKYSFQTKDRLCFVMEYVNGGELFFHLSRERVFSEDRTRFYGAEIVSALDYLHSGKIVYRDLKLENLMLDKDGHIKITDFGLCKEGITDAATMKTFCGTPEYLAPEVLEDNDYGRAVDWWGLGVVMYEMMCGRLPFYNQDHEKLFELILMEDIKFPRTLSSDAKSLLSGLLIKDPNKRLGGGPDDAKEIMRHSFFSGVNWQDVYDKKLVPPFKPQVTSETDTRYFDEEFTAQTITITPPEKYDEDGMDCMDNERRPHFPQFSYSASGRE
Chain of AKT1 (P31749 whole entry): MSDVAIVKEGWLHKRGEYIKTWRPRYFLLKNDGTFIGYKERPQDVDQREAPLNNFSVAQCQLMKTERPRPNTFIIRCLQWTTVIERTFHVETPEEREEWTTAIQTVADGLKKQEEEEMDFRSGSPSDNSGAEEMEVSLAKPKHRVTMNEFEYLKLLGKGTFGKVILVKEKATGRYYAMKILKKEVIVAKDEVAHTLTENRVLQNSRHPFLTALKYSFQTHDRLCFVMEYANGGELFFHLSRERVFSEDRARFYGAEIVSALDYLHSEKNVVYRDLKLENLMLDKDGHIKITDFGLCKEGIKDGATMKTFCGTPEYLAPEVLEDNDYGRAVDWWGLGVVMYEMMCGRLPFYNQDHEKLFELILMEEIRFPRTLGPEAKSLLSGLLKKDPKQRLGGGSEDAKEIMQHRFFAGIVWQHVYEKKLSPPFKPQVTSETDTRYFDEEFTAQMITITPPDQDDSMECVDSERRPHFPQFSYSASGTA

In the case of `CC(C)NC[C@@H](C(=O)N1C2CCC1CN(c1ncnc3c1[C@H](C)CC(=O)N3)C2)c1ccc(Cl)cc1` [Example 10, (R)-4-(8-((S)-2-(4-chlorophenyl)-3-(isopropylamino)propionyl)-3,8-diazabicyclo[3.2.1]octan-3-yl)-5-methyl-5,8-dihydropyrido[2,3-d]pyrimidin-7(6H)-one], the IC50 at AKT3 turned out to be 0.21 nM; on AKT1, 2.8 nM. The compound also showed a half-life in data set [1] (setting [2]) of 1.67 h. Further, in data set [1] (setting [3]), the AUC is 911 ng·h/mL. In data set [1] (setting [4]), the highest concentration (Cmax) was 321 ng/mL. Also, the Tmax in data set [1] (setting [5]) came out at 0.5 h.
In the case of `C[C@@H]1CC(=O)Nc2ncnc(N3CC4CCC(C3)N4C(=O)[C@H](CNC3CC3)c3ccc(Cl)cc3)c21` [Example 38], the IC50 is 0.28 nM at AKT3, 2.4 nM against AKT1 and 23 nM against AKT2.
Regarding `CC(C)NC[C@@H](C(=O)N1C2CCC1CN(c1ncnc3c1[C@H](C(F)(F)F)CC(=O)N3)C2)c1ccc(Cl)cc1` (single isomer, unassigned) [Example 24 Isomer 2], the IC50 is 19 nM against AKT3, 116 nM against AKT1 and no less than 1000 nM against AKT2.
As to `CC(C)NC[C@@H](C(=O)N1C2CCC1CN(c1ncnc3c1N(CCO)CC(=O)N3)C2)c1ccc(Cl)cc1` [Example 31], the IC50 was 1.8 nM on AKT3, 210 nM against AKT1 and no less than 1000 nM against AKT2.
On to `CC(C)NC[C@@H](C(=O)N1CC2CCC(C1)N2c1ncnc2c1[C@H](C(F)(F)F)CC(=O)N2)c1ccc(Cl)cc1` (single isomer, unassigned) [Example 25 Isomer 2], for which the IC50 at AKT3 stood at 0.19 nM; against AKT1, 0.59 nM; against AKT2 it was 20 nM.
In the case of `CC(C)NC[C@@H](C(=O)N1CCN(c2ncnc3c2N(C)CC(=O)N3)[C@@H]2C[C@@H]21)c1ccc(Cl)cc1` (single isomer, unassigned) [Example 27 Isomer 2], the IC50 on AKT3 was 7.4 nM; against AKT1, 147 nM; against AKT2 it was no less than 1000 nM.
Turning to `CC(C)NC[C@@H](C(=O)N1CC2CCC(C1)N2c1ncnc2c1[C@@H](C(F)(F)F)CC(=O)N2)c1ccc(Cl)cc1` (single isomer, unassigned) [Example 25 Isomer 1], the IC50 was 20 nM against AKT3, 218 nM against AKT1 and no less than 1000 nM against AKT2.
`CCN1CC(=O)Nc2ncnc(N3CC4CCC(C3)N4C(=O)[C@H](CNC(C)C)c3ccc(Cl)cc3)c21` [Example 28]: the IC50 amounted to 0.19 nM on AKT3, 2.1 nM against AKT1 and 89 nM against AKT2.
Take `CC(C)NC[C@@H](C(=O)N1CCN(c2ncnc3c2[C@H](C)OC(=O)N3)[C@H]2C[C@H]21)c1ccc(Cl)cc1` (single isomer, unassigned) [Example 34 Isomer 4]: the results for the IC50 on AKT3 and on AKT1 were 0.12 nM and 0.6 nM, respectively. In addition, the AUC in data set [1] (setting [3]) was 2580 ng·h/mL. The Cmax in data set [1] (setting [4]) stood at 497 ng/mL. Also, the Tmax in data set [1] (setting [5]) worked out at 4 h.
With `CC(C)NC[C@@H](C(=O)N1CCN(c2ncnc3c2N(C)CC(=O)N3)C[C@@H]1C)c1ccc(Cl)cc1` [Example 22, 4-((S)-4-((S)-2-(4-chlorophenyl)-3-(isopropylamino)propionyl)-3-methylpiperazin-1-yl)-5-methyl-5,8-dihydropteridine-7(6H)-one], the IC50 against AKT3 was 0.56 nM; against AKT1, 39 nM; against AKT2 it was 334 nM.
For `CC(C)NC[C@@H](C(=O)N1C2CCC1CN(c1ncnc3c1[C@@H]1C[C@@H]1C(=O)N3)C2)c1ccc(Cl)cc1` (single isomer, unassigned) [Example 39 Isomer 1], the IC50 came to 7.6 nM against AKT3, 13 nM on AKT1 and 75 nM on AKT2.
Take `CC(C)NC[C@@H](C(=O)N1CCN(c2ncnc3c2[C@H](C)CC(=O)N3)CC1)c1ccc(Cl)cc1` [Example 2 (R) Configur- ation product, (R)-4-(4-((S)-2-(4-chlorophenyl)-3-(isopropylamino)propionyl)piperazin-1-yl)-5-methyl-5,8-dihydropyrido[2,3-d]pyrimidin-7(6H)-one]: the IC50 was determined as 0.4 nM on AKT3, 2.4 nM at AKT1 and 4.3 nM against AKT2.
Take `CC(C)NC[C@@H](C(=O)N1CCN(c2ncnc3c2[C@H](C)C[C@H]3O)CC1)c1ccc(Cl)cc1` [GDC-0068, reference compound]: the half-life in data set [1] (setting [2]) is 2.59 h. Moreover, in data set [1] (setting [3]), the area under the curve (AUC) amounted to 320 ng·h/mL. For the same compound, the Cmax in data set [1] (setting [4]) amounted to 75.3 ng/mL. In data set [1] (setting [5]), the Tmax worked out at 2 h.
In turn, `CC(C)NC[C@@H](C(=O)N1C2CCC1CN(c1ncnc3c1N(C)CC(=O)N3)C2)c1ccc(Cl)cc1` [Example 21, 4-(8-((S)-2-(4-chlorophenyl)-3-(isopropylamino)propionyl)-3,8-diazabicyclo[3.2.1]octan-3-yl)-5-methyl-5,8-dihydropteridine-7(6H)-one formate] gave an IC50 at AKT3 of 0.2 nM. On AKT1, this compound registered an IC50 of 1.9 nM. For the same compound, in data set [1] (setting [6]), the AUC was found to be 2290 ng·h/mL, the concentration peaked (Cmax) at 681 ng/mL and the Tmax was 1 h.
Turning to `CC(C)NC[C@@H](C(=O)N1CCN(c2ncnc3c2[C@H](C)CC(=O)N3)[C@H](C)C1)c1ccc(Cl)cc1` [Example 7, (R)-4-((R)-4-((S)-2-(4-chlorophenyl)-3-(isopropylamino)propionyl)-2-methylpiperazin-1-yl)-5-methyl-5,8-dihydropyrido[2,3-d]pyrimidin-7(6H)-one], the IC50 at AKT3 is 7.4 nM; at AKT1 it was 26.4 nM.
Regarding `CC(C)NC[C@@H](C(=O)N1C2CCC1CN(c1ncnc3c1[C@H](C)OC(=O)N3)C2)c1ccc(Cl)cc1` (single isomer, unassigned) [Example 32 Isomer 1], the IC50 on AKT3 stood at 0.41 nM; on AKT1, 0.63 nM.
Regarding `CC(C)NC[C@@H](C(=O)N1CCN(c2ncnc3c2[C@H](C(F)(F)F)CC(=O)N3)CC1)c1ccc(Cl)cc1` (single isomer, unassigned) [Example 16 Isomer 2], the IC50 was found to be 1 nM at AKT3 and 12 nM against AKT1.
`CC(C)NC[C@@H](C(=O)N1CCN(c2ncnc3c2[C@H](C)CC(=O)N3)[C@H]2C[C@H]21)c1ccc(Cl)cc1` (single isomer, unassigned) [Example 15 Isomer 2]: the half-life in data set [1] (setting [2]) is 3.16 h. The AUC in data set [1] (setting [3]) was found to be 2170 ng·h/mL. The peak concentration (Cmax) in data set [1] (setting [4]) was 583 ng/mL. In data set [1] (setting [5]), the time to peak (Tmax) is 1 h.
Take `CC(C)NC[C@@H](C(=O)N1CCN(c2ncnc3c2[C@H](C)CC(=O)N3)C[C@H]1C)c1ccc(Cl)cc1` [Example 8, (R)-4-((R)-4-((S)-2-(4-chlorophenyl)-3-(isopropylamino)propionyl)-3-methylpiperazin-1-yl)-5-methyl-5,8-dihydropyrido[2,3-d]pyrimidin-7(6H)-one]: the figures for the 50% inhibitory concentration (IC50) at AKT3 and at AKT1 were 2.7 nM and 28.7 nM, respectively.
Regarding `CC(C)NC[C@@H](C(=O)N1CCN(c2ncnc3c2[C@@H](C)OC(=O)N3)[C@@H]2C[C@@H]21)c1ccc(Cl)cc1` (single isomer, unassigned) [Example 34 Isomer 2], the figures for the IC50 at AKT3 and on AKT1 were 89 nM and 613 nM, respectively.
For the compound `CC(C)NC[C@@H](C(=O)N1CCN(c2ncnc3c2[C@@H](C(F)(F)F)CC(=O)N3)CC1)c1ccc(Cl)cc1` (single isomer, unassigned) [Example 16 Isomer 1], the figures for the half-inhibitory concentration (IC50) on AKT3 and at AKT1 were 139 nM and 776 nM, respectively.

Values taken from patent publication US12617784B2, “AKT inhibitor” (Nanjing Chia Tai Tianqing Pharmaceutical Co., Ltd., priority 2019, dated 2026).
